These results are taken from patent US7741352B2, “KCNQ channel modulating compounds and their pharmaceutical use” (Neurosearch A/S, priority 2003, dated 2010).

The structures appear in SMILES notation.

The target in data set [1] is T1, human KCNQ4 channel (Homo sapiens, UniProt P56696).
T1 construct: expressed in transfected cells
Briefly: Electrophysiological determination: whole-cell patch-clamp of voltage-activated KCNQ current. The format is cell-based. As to conditions: HEK293 cell line stably expressing human KCNQ4; for IK (%): current at end of step to −30 mV, baseline current defined as 100%, test concentration not given; for activator or inhibitor of the KCNQ channel (increase or decrease in current): whole-cell patch clamp. How it is done:
KCNQ channels constitute a subfamily of the voltage-dependent potassium (K) channels. Five members of this family have been cloned (1-5) and they have been heterologously expressed in various homo- and heteromeric combinations. The ionic current through the channels is recorded in the whole-cell mode of the patch-clamp technique. The KCNQ currents are activated by a depolarising voltage step and it is investigated whether the test compound change the amount of basal current. Compounds that induce an increase in the voltage-activated current are called activators and the effect obtained by these activators is described as a percentage increase in baseline current at a given concentration.
A HEK293 cell line stably expressing the human KCNQ4 channel was obtained as described by Søgaard et al. [Søgaard R, Ljungstrøm T. Pedersen K A, Olesen S-P, Jensen B S: KCNQ4 channels expressed in mammalian cells: Functional characteristics and pharmacology; Am. J. Phys. 2000 280 C859-C866].
Experiments are carried out on a patch-clamp set-up. Cells plated on cover slips (Ø3.5 mm) are placed in a 15 μl perfusion chamber (flow rate ˜1 ml/min) mounted on an IMT-2 or IX-70 microscope equipped with Nomarski or Hoffmann optics. The microscope is placed on a vibration-free table in a grounded Faraday cage. All experiments are performed at room temperature (20-22° C.). The EPC-9 patch-clamp amplifier (HEKA-electronics, Lambrecht, Germany) is connected to a Macintosh computer via an ITC16 interface. Data are stored directly on the hard disk and analysed using IGOR software (Wavemetrics, Lake Oswego, USA).
The whole-cell configuration of the patch clamp technique is applied. In short: The Up of a borosilicate pipette (resistance 24 MΩ) is gently (remote control system) placed on the cell membrane. Light suction results in a giga seal (pipette resistance increases to more than 1 GΩ) and the cell membrane is then ruptured by more powerful suction. Cell capacitance is electronically compensated and the resistance between the pipette and the cell interior (the series resistance, Rs) is measured and compensated for. Usually the cell capacitance ranges from 5 to 20 pF (depending on cell size) and the series resistance is in the range 3 to 6 MΩ. Rs- as well as capacitance compensation are updated during the experiments (before each stimulus). All experiments with drifting Rs-values are discharged. Leak-subtractions are not performed but the leak is estimated by a hyper-polarisation voltage step.
The extracellular (bath) solution contains 144 mM NaCl, 2 mM CaCl2, 1 mM MgCl2, 10 mM HEPES (pH=7.4). […] By use of the program EqCal the concentration of free Ca^2+ have been calculated to 100 nM, the free Mg^2+ is 1 mM, and MgATP is 1.45 mM. […]

Regarding `Nc1cccc(-c2ccc(COc3ccc(C(=O)O)c(O)c3)cc2)c1` [Compound 3-11, 4-(3′-Amino-biphenyl-4-ylmethoxy)-2-hydroxy-benzoic acid], the melting point was 207 to 210 °C (dec.). Further, in data set [1], the “IK (%)” value amounted to 115% and the “activator or inhibitor of the KCNQ channel (increase or decrease in current)” value was “activators”. `O=C(O)c1ccc(-c2ccc(COc3ccc(C(=O)O)c(O)c3)cc2)cc1` [Compound 3-17, 4′-(4-Carboxy-3-hydroxy-phenoxymethyl)-biphenyl-4-carboxylic acid]: the melting point was 279 to 284 °C (dec.). Moreover, in data set [1], the “IK (%)” value worked out at 115% and the “activator or inhibitor of the KCNQ channel (increase or decrease in current)” value is reported as “activators”. On to `O=C(O)c1ccc(OCc2cccc(-c3cc(Cl)cc(Cl)c3)c2)cc1O` [Compound 3-31, 4-(3′,5′-Dichloro-biphenyl-3-ylmethoxy)-2-hydroxy-benzoic acid], for which the melting point was 194 to 197 °C (dec.).

For `Cn1ccc2cc(-c3cccc(COc4ccc(C(=O)O)c(O)c4)c3)ccc21` [Compound 3-33, 2-Hydroxy-4-[3-(1-methyl-1H-indol-5-yl)-benzyloxy]-benzoic acid], the melting point is 181 to 183 °C (dec.).

With `O=C(O)c1ccc(OCc2cccc(-c3ccc4[nH]ccc4c3)c2)cc1O` [Compound 3-34, 2-Hydroxy-4-[3-(1H-indol-5-yl)-benzyloxy]-benzoic acid], the melting point was 193 to 196 °C (dec.). Regarding `O=C(O)c1ccc(OCc2cccc(-c3ccc4c(c3)OCCCO4)c2)cc1O` [Compound 3-35, 4-[3-(3,4-Dihydro-2H-benzo[b][1,4]dioxepin-7-yl)-benzyloxy]-2-hydroxy-benzoic acid], the melting point was 188 to 192 °C (dec.).

For `O=C(O)c1ccc(OCc2cccc(-c3ccc4c(c3)OCCO4)c2)cc1O` [Compound 3-36, 4-[3-(2,3-Dihydro-benzo[1,4]dioxin-6-yl)-benzyloxy]-2-hydroxy-benzoic acid], the melting point is 170 to 175 °C (dec.). With `O=C(O)c1ccc(OCc2cccc(-c3cccc4ccccc34)c2)cc1O` [Compound 3-37, 2-Hydroxy-4-(3-naphthalen-1-yl-benzyloxy)-benzoic acid], the melting point was 156 to 164 °C (dec.). Take `O=C(O)c1ccc(OCc2cccc(-c3ccc4ccccc4c3)c2)cc1O` [Compound 3-38, 2-Hydroxy-4-(3-naphthalen-2-yl-benzyloxy)-benzoic acid]: the melting point is 190 to 194 °C (dec.). Turning to `CN(C)S(=O)(=O)c1ccc(-c2cccc(COc3ccc(C(=O)O)c(O)c3)c2)cc1` [Compound 3-39, 4-(4′-Dimethylsulfamoyl-biphenyl-3-ylmethoxy)-2-hydroxy-benzoic acid], the melting point was 196 to 204 °C (dec.).

`Cc1noc(C)c1-c1cccc(COc2ccc(C(=O)O)c(O)c2)c1` [Compound 3-40, 4-[3-(3,5-Dimethyl-isoxazol-4-yl)-benzyloxy]-2-hydroxy-benzoic acid]: the melting point was 155 to 176 °C (dec.). As for `N#Cc1cccc(-c2cccc(COc3ccc(C(=O)O)c(O)c3)c2)c1` [Compound 3-41, 4-(3′-Cyano-biphenyl-3-ylmethoxy)-2-hydroxy-benzoic acid], the melting point is 155 to 170 °C (dec.). For `COc1ccc(-c2cccc(COc3ccc(C(=O)O)c(O)c3)c2)c(OC)c1` [Compound 3-42, 4-(2′,4′-Dimethoxy-biphenyl-3-ylmethoxy)-2-hydroxy-benzoic acid], the melting point was 176 to 178 °C (dec.). As to `O=C(O)c1ccc(OC2CCOCC2)cc1O` [Compound 4-1, 2-hydroxy-4-(tetrahydro-pyran-4-yloxy)-benzoic acid], the melting point was 179 to 181 °C (dec.).

As for `O=C(Oc1ccc(C(=O)O)c(O)c1)c1ccc(-c2ccccc2)cc1` [Compound 5-1, 4-(4-Phenyl-benzoyloxy)-2-hydroxy benzoic acid], the melting point is greater than 275 °C. Regarding `O=C(O)c1ccc(NCc2cccc([N+](=O)[O-])c2)cc1O` [Compound 6-1, 2-Hydroxy-4-(3-nitro-benzylamino)-benzoic acid], the melting point is 189 °C (dec.). Turning to `O=C(O)c1ccc(NCc2ccc(OC(F)F)cc2)cc1O` [Compound 6-2, 4-(4-Difluoromethoxy-benzylamino)-2-hydroxy-benzoic acid], the melting point is 161 to 162 °C. The same measure, in the same setting: the same measure for `CC(=O)Nc1ccc(CNc2ccc(C(=O)O)c(O)c2)cc1` [Compound 6-3, 4-(4-Acetylamino-benzylamino)-2-hydroxy-benzoic acid]: 154 °C.

Consider `O=C(O)c1ccc(NCc2ccc(F)cc2)cc1O` [Compound 6-4, 4-(4-Fluoro-benzylamino)-2-hydroxy-benzoic acid], for which the melting point is 175 °C (dec.). Compound `COc1cc(NC(=O)c2ccc(-c3ccccc3)cc2)ccc1C(=O)O` [Compound 7-1] returned a melting point of 179 to 181 °C. As for `O=C(Nc1ccc(C(=O)O)c(O)c1)c1ccc(-c2ccccc2)cc1` [Compound 7-2, 4-[(Biphenyl-4-carbonyl)-amino]-2-hydroxy benzoic acid], the melting point was 266 °C (dec.). For `O=C(O)c1ccc(Oc2ccc([N+](=O)[O-])cc2)cc1O` [Compound 8-1, 2-Hydroxy-4-(4-nitro-phenoxy)-benzoic acid], the melting point was 195 to 197 °C. With `Nc1ccc(Oc2ccc(C(=O)O)c(O)c2)cc1` [Compound 8-2, 4-(4-Amino-phenoxy)-2-hydroxy-benzoic acid], the melting point was in the range of 187 to 188 °C. Turning to `O=C(O)c1ccc(Oc2ccc(-c3ccccc3)cc2[N+](=O)[O-])cc1O` [Compound 8-4, 2-Hydroxy-4-(3-nitro-biphenyl-4-yloxy)-benzoic acid], the melting point was > 200 °C (dec.).

As for `O=C(O)c1ccc(Nc2ccccc2[N+](=O)[O-])cc1O` [Compound 8-12, 2-Hydroxy-4-(2-nitro-phenylamino)-benzoic acid], the melting point is 190 °C (dec.). In turn, `CCCCCCCCOc1ccc(NC(=O)C(F)(F)F)c(O)c1` [Compound 9-1, 2,2,2-trifluoro-N-(2-hydroxy-4-octyloxy-phenyl)-acetamide] displayed a melting point of 114 to 116 °C.

As to `CCCCCCCCOc1ccc(NS(C)(=O)=O)c(O)c1` [Compound 9-2, N-(2-hydroxy-4-octyloxy-phenyl)-methanesulfonamide], the melting point was in the range of 98 to 101 °C. Same read-out and setting: to `O=C(Nc1ccc(OCc2ccc(F)cc2)cc1O)C(F)(F)F` [Compound 9-3, 2,2,2-trifluoro-N-[4-(4-fluoro-benzyloxy)-2-hydroxy-phenyl]-acetamide] belongs 143 to 145 °C; to `CCCCCCCCOc1ccc(O)c(O)c1` [Compound 10-1, 4-Octyloxy-benzene-1,2-diol], 108 to 115 °C (dec.); to `CCCCCCCCCc1ccc(C(=O)O)c(O)c1` [Compound 11-1, 4-Nonyl salicylic acid], 94 to 97 °C.

As to `CCCCCCCCOc1ccc(C(N)=O)c(O)c1` [Compound 12-4, 2-Hydroxy-4-octyloxy-benzamide], the melting point was 123 to 124 °C. `CCCCCCCCOc1ccc(C#N)c(O)c1` [Compound 12-5, 2-Hydroxy-4-octyloxy-benzonitrile] registered a melting point of 69 to 71 °C. Regarding `CCCCCCCCOc1ccc(-c2nnn[nH]2)c(O)c1` [Compound 12-6, 5-Octyloxy-2-(1H-tetrazol-5-yl)-phenol], the melting point fell in the range of 142 to 146 °C.

The compound `N#Cc1ccc(NCc2ccc(-c3ccccc3)cc2)cc1O` [Compound 12-16, 4-[(Biphenyl-4-ylmethyl)-amino]-2-hydroxy-benzonitrile] yielded a melting point of 196 to 197 °C.
